From US20100015071A1, “Compositions for Improving Skin Conditions Comprising Alpha-Bisabolol as an Active Ingredient” (Biospectrum Inc., priority 2007, published 2010) come the findings set out here.

Molecules are shown by their SMILES.

Data set [1] relates to B16 mouse melanoma cells. Nature of the data set: Inhibition of melanin production in B16 mouse melanoma cells. It counts as cell-based. The conditions noted are these: 72 h, B16 F10 cells, 3 days, read-out: Inhibitory rate of melanin production (%). The procedure: This cell pellets were dried at 60° C., 100 μl of 1M NaOH containing 10% DMSO was added to thereto, and intracellular melanin was obtained in incubator at 60° C.

A further data set has as its system brown guinea pigs. The data set is described as follows: Skin whitening effect in UV-pigmented brown guinea pigs. Type of data set: in vivo, guinea pig. The conditions noted are these: for Whitening effects (ΔL): once or twice a day for 50 days, control ΔL 0.35. On the procedure: A skin whitening effect of α-bisabolol was measured using brown guinea pigs (Charles River Laboratories, Inc.) pigmentation of which is known to increase upon exposure to ultraviolet light like human.
To induce pigmentation in the brown guinea pig by ultraviolet (UV), aluminum foil with square windows of 3×3 cm^2 was adhered to hair-removed abdominal skin of brown guinea pig, and then UV light was irradiated thereon with a SE lamp (wavelength 290-320 nm, Toshiba) (total irradiation energy=1350 mJ/cm^2). After UV irradiation, the aluminum foil was removed and samples (α-bisabolol or arbutin) were applied as the following method. Increased pigmentation was observed on 2-3 days after UV irradiation and reached a maximum after about 2 weeks. Following the period of time showing the maximum pigmentation, samples were applied.
The application of samples was performed once or twice a day for 50 days. The samples were dissolved or diluted in a solvent (Propylene glycol:ethanol:water 5:3:2) and applied by a swab. The control with only the solvent was applied to another site. The occurrence of cumulative irritation was also examined.
The degree of pigmentation of skin was determined using a chromameter (CR2002, MINOLTA, JP) to estimate the effects of applied samples. La*b* calorimetric system was used to classify color and L* value was used as standard in Example. The L* value was corrected using white board standard and was measured more than five times at one site. Pigmentation was evenly distributed. Skin color differences (ΔL*) between application starting point and application end point were obtained and used to evaluate effects of samples.
ΔL*=L* value on […] after application−L* value on application starting day Equation 1
ΔL* values were obtained for control and sample application to evaluate skin whitening effects.

In a further data set the target is T1, intracellular tyrosinase (Mus musculus, UniProt P11344).
T1 sequence (P11344 19-533): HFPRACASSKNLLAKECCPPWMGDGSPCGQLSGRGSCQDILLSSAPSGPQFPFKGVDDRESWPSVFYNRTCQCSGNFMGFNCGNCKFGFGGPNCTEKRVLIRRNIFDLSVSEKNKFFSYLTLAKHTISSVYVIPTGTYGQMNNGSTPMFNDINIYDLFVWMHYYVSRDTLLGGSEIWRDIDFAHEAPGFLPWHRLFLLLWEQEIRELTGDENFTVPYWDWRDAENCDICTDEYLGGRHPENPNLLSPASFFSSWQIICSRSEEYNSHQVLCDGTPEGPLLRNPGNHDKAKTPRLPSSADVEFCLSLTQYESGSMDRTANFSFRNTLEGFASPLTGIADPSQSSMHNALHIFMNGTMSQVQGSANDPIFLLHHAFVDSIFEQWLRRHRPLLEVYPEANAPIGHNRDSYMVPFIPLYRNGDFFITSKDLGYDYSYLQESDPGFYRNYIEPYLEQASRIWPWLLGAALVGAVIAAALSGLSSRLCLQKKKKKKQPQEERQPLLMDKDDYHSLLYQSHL
The data set is described as follows: Inhibition of intracellular tyrosinase activity in murine melanoma (B-16 F1) cells. Particulars: B16-F1, read-out: Inhibitory rate of intracellular tyrosinase activity (%).

Data set [2] can be described thus: Anti-oxidation: removal of superoxide anion (SOD Assay Kit-WST). Type of data set: biochemical. The procedure: Superoxide dismutase (SOD) has been known as an anti-oxidation-catalyzing enzyme which converts superoxide anion into H2O2 and O2. This experiment evaluates anti-oxidation activity of samples by observing removal of superoxide anion generated by xanthine oxidase. The experiment was performed using the kit (SOD Assay Kit-WST) purchased from Dojindo (JP) in accordance with manufacture's protocol.

Another data set has as its system COX (cyclooxygenase). The data set is described as follows: COX inhibitory ability in LPS-treated THP-1 cells. It counts as cell-based, human. The conditions noted are these: LPS alone = 100. On the procedure:
To determine whether α-bisabolol had anti-inflammatory effects, the experiment of COX (cyclooxygenase) inhibitory ability was carried out using human monocytic cell, THP-1 cell (Korean Cell Line Bank) according to conventional method. The COX activity was measured in accordance with Methods in Enzymology 43:9 (1994) published by F. J. Van de Ouderaaa and Muytenhek. THP-1 cell line was cultivated and aliquoted into 24-well plate. The incubation volume per well was adjusted to 500 μl, 2 μl of the sample compound, which dissolved in lipopolysaccahride (1 μg/ml, Sigma) and solvents described in the following Table respectively, was added and cultivated for 24-48 hr under the same condition. After 24-48 hr, calcium ionophore (Sigma) and [1-14C] arachidonic acid 1 μl (in EtOH, 0.1 μCi/ml, Sigma) were added to each well, and cultivated for 10 min under the same condition. Following the cultivation, citric acid was added to each well for adjusting to pH 3.5, shaked, each 500 μl of cultivation solution taken from the plate was aliquoted into micro centrifuge tube, 700 μl of ethylacetate was added to thereto, and the solution was shaking extracted for 10 min. 500 μl of ethylacetate layer was concentrated using speed vacuum dryer for 20 min, 20 μl of the residual was dissolved in ethylacetate, and the resultant was employed with authentic standard in TLC plate. The radioactive band was identified by authentic eicosanoid standards, the radioactivity of the identified band was measured using BAS 2000 bio-imaging analyzer (Fuji, JP) (Table 7).

Another data set deals with Interleukin-2 promoter. Nature of the data set: Interleukin-2 luciferase reporter activity in PHA-activated Jurkat cells. The conditions noted are these: 24 hr, PHA alone = 100. It counts as cell-based, human. The procedure:
Interleukin-2 promoter was reported to play an important role in the generation of cytokine related to inflammatory. The activity of interleukin-2 luciferase was measured using the following method: Human T lymphocytes cell line, 1×10^6 of Jurkat cell (Korean Cell Line Bank) were aliquoted into each well of 6-wells, IL-2 luciferase reporter plasmid DNA (Stratagene) was transfected using superfect transfection reagent (In vitrogen). 24 hr after transfection, PHA (Phytohemaglutinin, Sigma) (100 ng/ml) was treated to activate Jurkat cell and each samples was treated with varying concentration. Following 24 hr, the cell was collected and the luciferase activity was measured using luminometer (Berthold Technologies GmbH&Co.KG, Germany).

Data set [3] concerns procollagen type I C-peptide (PICP). The data set is described as follows: Collagen synthesis (procollagen type I C-peptide) in human fibroblasts. It counts as cell-based. Particulars: 24 hr. The procedure: Human fibroblasts (commercially available from pacific) were seeded into a 6-well plate (2×10^5 cells/well) and the well plate was incubated in a 5% CO2 incubator for 24 hr at 37° C. After 24 hr, the medium in each well was removed and cells were incubated with various concentrations of samples for 24 hr. Afterwards, the cell medium was collected and was used as samples. The potential of collagen synthesis was determined by measuring the amount of procollagen type I C-peptide (PICP) in cell medium using Procollagen Type I C-peptide EIA kit (MK101, Takara, Kyoto, Japan) in accordance with manufacturer's protocol.

For another data set, the system named is collagenase. Nature of the data set: Collagenase activity in human fibroblast medium (Type 1 collagenase assay kit). Type of data set: cell-based. Particulars: human fibroblasts, 24 hr. The procedure: Human fibroblasts (commercially available from pacific) were seeded into a 6-well plate (2×10^5 cells/well) and the well plate was incubated in a 5% CO2 incubator for 24 hr at 37° C. After 24 hr, the medium in each well was removed and cells were incubated with various concentrations of samples for 24 hr. Afterwards, the cell medium was collected and was used as samples.
For measuring the collagenase activity, antibodies against collagenase was used. The collagenase activity was measured using a Type 1 collagenase assay kit (Amersham Biosciences, RPN2629) and the absorbance values were obtain using an ELISA reader (Bio-Tek ELx808™ Series Ultra Microplate Reader, U.K). The measured average values were represented as mean±standard deviation.

The nature of data set [4]: Obesity inhibition test in ICR male mice (body weight). Type of data set: in vivo, mouse. Particulars: single forced administration. The procedure:
An obesity inhibition test was performed by the following method using well-known laboratory animals. The process for determining obesity-inhibitory activity was as follows: Crj: 7 week-old ICR male mice (obtained from Charles River Japan Ltd) weeks were preliminarily fed for 1 week, then classified into groups each having 7 animals and subjected to the test. The animals were fed under controlled conditions at a temperature of 23±1° C., and a humidity of 55±5% under illumination for 12 hours per day. They were fed with a feed Labo MR (manufactured by Nippon Nosan) and allowed to take water ad libitum. α-Bisabolol was present in the form of liposome (prepared with 5% lecithin) to the final concentration of either 0.1% or 1%. The concentration of each sample solution was adjusted so that 0.1 ml of the solution was given per 10 g body weight of mice. The doses employed were […] and 1 g/kg. To a control group, 5% lecithin emulsion was administered. After fasting the mice, the sample was administered once by force on the next day. During the test period over 2 weeks, the body weight and general conditions were monitored.

Data set [5] relates to B16 mouse melanoma cells. The data set is described as follows: Cytotoxicity at the test concentrations in B16 melanoma cells. Type of data set: cell-based. The conditions noted are these: 1 ppm, 5 ppm and 10 ppm.

Experimental for intracellular tyrosinase: After measuring the inhibition of melanin production by α-bisabolol using B16 mouse melanoma cells (Korean Cell Line Bank), the measurement was compared with that for the inhibition of intracellular tyrosinase activities by arbutin, known as a melanin production inhibitor. Murine melanoma (B-16 F1) cells were seeded into each well of a 6-well plate (1×10^5 cells/well) in DMEM containing 10% FBS (fetal bovine serum) and the cells were cultured to about more than 80% adherence by incubating in a CO2 incubator under conditions of 37° C. and 5.0% CO2. After cultivation, the medium was removed and samples were replaced in medium diluted at suitable concentration, followed by incubating for 3 days under conditions of 37° C. and 5.0% CO2. […] The cells removing medium were washed with PBS (phosphate buffer saline) and treated with trypsin to collect cells. The number of the collected cells was calculated using hematocytometer, centrifuged at 5,000 to 10,000 rpm for 10 min and the supernatant was eliminated, thereby obtaining pellets. This cell pellets were lysated using lysis buffer, centrifuged at 12,000 rpm for 10 min and the supernatant was collected. Then, the cell solution was measured for absorbance at 492 nm using microplate reader and the activity of tyrosinase per cell constant number was estimated.

In the case of `OC[C@H]1O[C@@H](Oc2ccc(O)cc2)[C@H](O)[C@@H](O)[C@@H]1O` [Arbutin, reference compound], the values for the inhibition at 5 ppm in the data set on B16 mouse melanoma cells [1] and on intracellular tyrosinase were 22% and 45%, respectively. Besides, in the data set with brown guinea pigs (1.0 % topical), the “Whitening effects (ΔL)” value was 0.54.
Regarding `CC(C)=CCC[C@](C)(O)C1CC=C(C)CC1` (stereo in doubt) [α-Bisabolol, (2S)-6-methyl-2-[(1R)-4-methyl-1-cyclohex-3-enyl]hept-5-en-2ol], the inhibition at 1 ppm in the data set with B16 mouse melanoma cells [1] (1 ppm) came out at 24%; on intracellular tyrosinase, 13%. In addition, the inhibition at 5 ppm in the data set with B16 mouse melanoma cells [1] amounted to 36%; on intracellular tyrosinase, 38%. The inhibition at 10 ppm in the data set with B16 mouse melanoma cells [1] (10 ppm) came out at 49%; at intracellular tyrosinase it was 58%. For the same molecule, the “Whitening effects (ΔL)” value is 0.42 with brown guinea pigs (0.2 % topical) and 0.67 in the data set on brown guinea pigs (1.0 % topical). Also, the Cumulative irritation entry in the data set with brown guinea pigs (topical on brown guinea pig skin for 50 days) was “no observation of cumulative irritation”. In addition, the “Removal rate of superoxide anion (%)” value in [2] (1 ppm) is reported as 8%; in [2] (5 ppm), 18%; in data set [2] (10 ppm), 34%. In addition, the “COX activities (%)” value in the data set with COX (cyclooxygenase) (1 ppm with LPS (1 μg/ml)) came to 95%; in the data set with COX (cyclooxygenase) (5 ppm with LPS (1 μg/ml)), 75%; in the data set with COX (cyclooxygenase) (10 ppm with LPS (1 μg/ml)), 67%. Further, the values for the IL-2 luciferase activities in the data set with Interleukin-2 promoter (1 ppm with PHA (100 ng/ml)), in the data set with Interleukin-2 promoter (5 ppm with PHA (100 ng/ml)) and in the data set with Interleukin-2 promoter (10 ppm with PHA (100 ng/ml)) were 92, 72 and 58, respectively. The “Increase of collagen synthesis (%)” value is 23% in data set [3] (1 ppm), 43% in data set [3] (5 ppm) and 76% in data set [3] (10 ppm). Also, the “Inhibition of collagenase (%)” value with collagenase (1 ppm) was 12%; in the data set on collagenase (5 ppm), 28%; in the data set on collagenase (10 ppm) it was 43%. Moreover, the “Body weight” value in [4] (0.1% in liposome, day 5, untreated 24) was found to be 24 g; in [4] (0.1% in liposome, day 10, untreated 28), 24 g; in data set [4] (0.1% in liposome, day 15, untreated 34), 26 g; in data set [4] (1% in liposome, day 5, untreated 24), 23 g; in [4] (1% in liposome, day 10, untreated 28) it was 24 g; in data set [4] (1% in liposome, day 15, untreated 34), 26 g. For the same molecule, the Cytotoxicity entry in the data set on B16 mouse melanoma cells [5] is reported as “did not show cytotoxicity”.
